Data: patent publication US10160750B2, “Diamide macrocycles as factor XIa inhibitors” (BRISTOL-MYERS SQUIBB COMPANY, priority 2015, dated 2018)

Legend:
[1] = target: T1, purified human Factor XIa (Homo sapiens, UniProt P03951); experiment: Factor XIa enzyme inhibition assay (chromogenic substrate S-2366); assay type: biochemical; conditions: substrate S-2366, pH 7.4
T1 construct: purchased Haematologic Technologies
Description: (§1) The effectiveness of compounds of the present invention as inhibitors of the coagulation Factors XIa, VIIa, IXa, Xa, XIIa, plasma kallikrein or thrombin, can be determined using a relevant purified serine protease, respectively, and an appropriate synthetic substrate. The rate of hydrolysis of the chromogenic or fluorogenic substrate by the relevant serine protease was measured both in the absence and presence of compounds of the present invention. […] A decrease in the rate of absorbance or fluorescence change in the presence of inhibitor is indicative of enzyme inhibition. Such methods are known to one skilled in the art. The results of this assay are expressed as the inhibitory constant, Ki.
Factor XIa determinations were made in 50 mM HEPES buffer at pH 7.4 containing 145 mM NaCl, 5 mM KCl, and 0.1% PEG 8000 (polyethylene glycol; JT Baker or Fisher Scientific). Determinations were made using purified human Factor XIa at a final concentration of 25-200 pM (Haematologic Technologies) and the synthetic substrate S-2366 (pyroGlu-Pro-Arg-pNA; Chromogenix or AnaSpec) at a concentration of 0.0002-0.001 M.
(§2) The Michaelis constant, Km, for substrate hydrolysis by each protease, was determined at 25° C. or 37° C. in the absence of inhibitor. Values of Ki were determined by allowing the protease to react with the substrate in the presence of the inhibitor. Reactions were allowed to go for periods of 20-180 minutes (depending on the protease) and the velocities (rate of absorbance or fluorescence change versus time) were measured. The following relationships were used to calculate Ki values: (Vmax*S)/(Km+S); (vo−vs)/vs=I/(Ki*(1+S/Km)) for a competitive inhibitor with one binding site; or vs/vo=A+((B−A)/(1+(IC50/(I))^n)); and Ki=IC50/(1+S/Km) for a competitive inhibitor where: […]

[2] = target: T2, purified human plasma kallikrein (Homo sapiens, UniProt P03952); experiment: Plasma kallikrein enzyme inhibition assay (chromogenic substrate S-2302); assay type: biochemical; conditions: substrate S-2302, pH 7.5
T2 construct: Plasma prekallikrein is a zymogen of a trypsin-like serine protease; purchased Enzyme Research Laboratories
Description: as §1
Plasma kallikrein determinations were made in 0.1 M sodium phosphate buffer at a pH of 7.5 containing 0.1-0.2 M sodium chloride and 0.5% PEG 8000. Determinations were made using purified human plasma kallikrein (Enzyme Research Laboratories) at a final assay concentration of 200 pM and the synthetic substrate S-2302 (H-(D)-Pro-Phe-Arg-pNA; Chromogenix) at a concentration of 0.00008-0.0004 M.
as §2

T1 sequence (P03951 388-625 limits assumed): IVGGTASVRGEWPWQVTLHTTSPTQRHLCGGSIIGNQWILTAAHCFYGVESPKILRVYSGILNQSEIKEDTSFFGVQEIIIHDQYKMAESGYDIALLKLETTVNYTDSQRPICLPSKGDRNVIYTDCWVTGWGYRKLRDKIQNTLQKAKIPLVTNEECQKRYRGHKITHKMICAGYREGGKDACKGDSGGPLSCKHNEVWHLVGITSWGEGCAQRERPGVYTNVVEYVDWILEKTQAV
T1 sequence (P03951 19-387 partner limits assumed): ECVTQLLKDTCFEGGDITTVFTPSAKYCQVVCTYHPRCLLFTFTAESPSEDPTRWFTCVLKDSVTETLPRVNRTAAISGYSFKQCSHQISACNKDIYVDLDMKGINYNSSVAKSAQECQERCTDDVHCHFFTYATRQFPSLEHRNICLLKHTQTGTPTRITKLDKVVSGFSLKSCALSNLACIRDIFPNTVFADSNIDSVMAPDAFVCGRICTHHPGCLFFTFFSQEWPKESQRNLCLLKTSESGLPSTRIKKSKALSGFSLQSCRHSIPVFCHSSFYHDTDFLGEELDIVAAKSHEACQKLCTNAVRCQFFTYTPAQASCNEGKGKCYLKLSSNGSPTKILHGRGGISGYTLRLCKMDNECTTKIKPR
T2 sequence (P03952 391-638 limits assumed): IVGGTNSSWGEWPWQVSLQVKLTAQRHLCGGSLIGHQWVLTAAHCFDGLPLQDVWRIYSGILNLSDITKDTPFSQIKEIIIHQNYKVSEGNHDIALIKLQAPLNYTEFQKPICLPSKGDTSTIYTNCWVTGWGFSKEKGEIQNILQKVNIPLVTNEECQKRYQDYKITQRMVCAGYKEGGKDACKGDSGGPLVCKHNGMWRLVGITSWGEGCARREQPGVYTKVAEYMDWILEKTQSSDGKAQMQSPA
T2 sequence (P03952 20-390 partner limits assumed): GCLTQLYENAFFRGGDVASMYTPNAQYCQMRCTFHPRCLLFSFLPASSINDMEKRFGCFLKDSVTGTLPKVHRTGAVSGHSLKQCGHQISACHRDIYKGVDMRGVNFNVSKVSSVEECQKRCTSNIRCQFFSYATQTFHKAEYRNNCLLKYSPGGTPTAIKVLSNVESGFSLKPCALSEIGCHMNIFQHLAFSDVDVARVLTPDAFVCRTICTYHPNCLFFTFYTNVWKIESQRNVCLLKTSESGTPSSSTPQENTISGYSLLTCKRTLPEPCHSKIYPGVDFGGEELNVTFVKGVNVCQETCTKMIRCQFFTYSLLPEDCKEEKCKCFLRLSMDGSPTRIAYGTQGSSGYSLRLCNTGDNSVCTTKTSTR

Ki [1]	Ki [2]	Structure (SMILES)
93 nM	2830 nM	CC1NC(=O)[C@@H](N2CCC(c3cc(Cl)ccc3-n3cc(C(F)(F)F)nn3)=CC2=O)CCC[C@@H](C)C(=O)Nc2ccccc21 (single isomer, unassigned; diastereomer a) [Example 21]
3680 nM	> 13000 nM	CC1NC(=O)[C@@H](N2CCC(c3cc(Cl)ccc3-n3cc(C(F)(F)F)nn3)=CC2=O)CCC[C@@H](C)C(=O)Nc2ccccc21 (single isomer, unassigned; diastereomer b) [Example 22]
18.7 nM	3380 nM	C[C@@H]1CCC[C@H](n2cnc(-c3cc(Cl)ccc3-n3cc(C(F)(F)F)nn3)cc2=O)C(=O)NCc2ccccc2NC1=O [Example 11, (3R,7S)-7-(4-(5-Chloro-2-(4-(trifluoromethyl)-1H-1,2,3-triazol-1-yl)phenyl)-6-oxopyrimidin-1(6H)-yl)-3-methyl-4,5,6,7,9,10-hexahydrobenzo[b][1,5]-diazacyclododecine-2,8(1H, 3H)-dione]
2 nM	179 nM	C[C@@H]1CCC[C@H](n2cnc(-c3c(-n4cc(Cl)nn4)ccc(Cl)c3F)cc2=O)C(=O)NCc2ccccc2NC1=O [Example 12, (3R,7S)-7-(4-(3-Chloro-6-(4-chloro-1H-1,2,3-triazol-1-yl)-2-fluorophenyl)-6-oxopyrimidin-1(6H)-yl)-3-methyl-4,5,6,7,9,10-hexahydrobenzo[b][1,5]diazacyclo-dodecine-2,8(1H,3H)-dione]
8.5 nM	1230 nM	C[C@@H]1CCC[C@H](n2cnc(-c3cc(Cl)ccc3-n3cc(Cl)nn3)cc2=O)C(=O)NCc2ccccc2NC1=O [Example 13, (3R,7S)-7-(4-(5-Chloro-2-(4-chloro-1H-1,2,3-triazol-1-yl)phenyl)-6-oxopyrimidin-1(6H)-yl)-3-methyl-4,5,6,7,9,10-hexahydrobenzo[b][1,5]diazacyclo-dodecine-2,8(1H,3H)-dione]
4.3 nM	733 nM	C[C@@H]1CCC[C@H](n2cnc(-c3c(-n4cc(C(F)(F)F)nn4)ccc(Cl)c3F)cc2=O)C(=O)NCc2ccccc2NC1=O [Example 14, (3R,7S)-7-(4-(3-Chloro-2-fluoro-6-(4-(trifluoromethyl)-1H-1,2,3-triazol-1-yl)phenyl)-6-oxopyrimidin-1(6H)-yl)-3-methyl-4,5,6,7,9,10-hexahydrobenzo[b][1,5]-diazacyclododecine-2,8(1H,3H)-dione]
34.8 nM	3360 nM	C[C@@H]1CCC[C@H](n2cnc(-c3cc(Cl)ccc3-n3cc(C(F)F)nn3)cc2=O)C(=O)NCc2ccccc2NC1=O [Example 15, (3R,7S)-7-(4-(5-Chloro-2-(4-(difluoromethyl)-1H-1,2,3-triazol-1-yl)phenyl)-6-oxopyrimidin-1(6H)-yl)-3-methyl-4,5,6,7,9,10-hexahydrobenzo[b][1,5]diazacyclo-dodecine-2,8(1H, 3H)-dione]
4 nM	60.7 nM	C[C@@H]1CCC[C@H](N2CCC(c3cc(Cl)ccc3-n3cc(Cl)nn3)=CC2=O)C(=O)NCc2ccccc2NC1=O [Example 16, (3R,7S)-7-(4-(5-Chloro-2-(4-chloro-H-1,2,3-triazol-1-yl)phenyl)-2-oxo-5,6-dihydropyridin-1(2H)-yl)-3-methyl-4,5,6,7,9,10-hexahydrobenzo[b][1,5]diazacyclododecine-2,8(1H, 3H)-dione]
112 nM	558 nM	C[C@@H]1CCC[C@H](N2CCC(c3c(F)ccc(Cl)c3F)=CC2=O)C(=O)NCc2ccccc2NC1=O [Example 17, (3R,7S)-7-(4-(3-Chloro-2,6-difluorophenyl)-2-oxo-56-dihydropyridin-1(2H)-yl)-3-methy 1-4,5,6,7,9,10-hexahydrobenzo[b][1,5]diazacyclododecine-2,8(1H,3H)-dione]
3.1 nM	103 nM	C[C@@H]1CCC[C@H](N2CCC(c3cc(Cl)ccc3-n3cc(C(F)(F)F)nn3)=CC2=O)C(=O)NCc2ccccc2NC1=O [Example 18]
10.1 nM	259 nM	C[C@@H]1CCC[C@H](n2ccc(-c3cc(Cl)ccc3-n3cc(Cl)nn3)cc2=O)C(=O)NCc2ccccc2NC1=O [Example 18]
18.7 nM	≥ 13000 nM	C[C@@H]1CCC[C@H](n2cnc(-c3cc(Cl)ccc3-n3cc(C(F)(F)F)nn3)cc2=O)C(=O)NCc2cc(F)ccc2NC1=O [Example 19, (3R,7S)-7-(4-(5-Chloro-2-(4-(trifluoromethyl)-1H-1,2,3-triazol-1-yl)phenyl)-6-oxopyrimidin-1(6H)-yl)-12-fluoro-3-methyl-4,5,6,7,9,10-hexahydrobenzo[b][1,5]diazacyclododecine-2,8(1H,3H)-dione]
7 nM	268 nM	C[C@@H]1CCC[C@H](N2CCC(c3cc(Cl)ccc3-n3cc(C(F)(F)F)nn3)=CC2=O)C(=O)NCc2cc(F)ccc2NC1=O [Example 20, (3R,7S)-7-(4-(5-Chloro-2-(4-(trifluoromethyl)-1H-1,2,3-triazol-1-yl)phenyl)-2-oxo-5,6-dihydropyridin-1(2H)-yl)-12-fluoro-3-methyl-4,5,6,7,9,10-hexahydrobenzo[b][1,5]diazacyclododecine-2,8(1H,3H)-dione]
8730 nM	≥ 13000 nM	C[C@@H]1CCC[C@H](NC(=O)c2cn(-c3cccc(Cl)c3F)nn2)C(=O)NCc2ccccc2NC1=O [Example 23, 1-(3-chloro-2-fluorophenyl)-N-((3R,7S)-3-methyl-2,8-dioxo-1,2,3,4,5,6,7,8,9,10-decahydrobenzo[b][1,5]diazacyclododecin-7-yl)-1H-1,2,3-triazole-4-carboxamide]
7410 nM	4360 nM	Cc1c(C(=O)N[C@H]2CCC[C@@H](C)C(=O)Nc3ccccc3CNC2=O)ncn1-c1cccc(Cl)c1F [Example 24, 1-(3-chloro-2-fluorophenyl)-5-methyl-N-((3R,7S)-3-methyl-2,8-dioxo-1,2,3,4,5,6,7,8,9,10-decahydrobenzo[b][1,5]diazacyclododecin-7-yl)-1H-imidazole-4-carboxamide]
6000 nM	> 13000 nM	O=C1CCCCC[C@H](NC(=O)c2cn(-c3cccc(Cl)c3F)nn2)C(=O)Nc2ccccc2N1 [Example 25, (S)-1-(3-chloro-2-fluorophenyl)-N-(2,9-dioxo-1,2,3,4,5,6,7,8,9,10-decahydrobenzo[b][1,4]diazacyclododecin-3-yl)-1H-1,2,3-triazole-4-carboxamide]
1740 nM	765 nM	Cc1c(C(=O)N[C@H]2CCCCCC(=O)Nc3cc(C(=O)O)ccc3NC2=O)cnn1-c1cccc(Cl)c1F [Example 26, (S)-3-(1-(3-chloro-2-fluorophenyl)-5-methyl-1H-pyrazole-4-carboxamido)-2,9-dioxo-1,2,3,4,5,6,7,8,9,10-decahydrobenzo[b][1,4]diazacyclododecine-12-carboxylic acid]
561 nM	> 13000 nM	COC(=O)c1ccc2c(c1)NC(=O)CCCCC[C@H](n1cnc(-c3cc(Cl)ccc3-n3cc(C(F)(F)F)nn3)cc1=O)C(=O)N2 [Example 27, methyl (S)-3-(4-(5-chloro-2-(4-(trifluoromethyl)-1H-1,2,3-triazol-1-yl)phenyl)-6-oxopyrimidin-1(6H)-yl)-2,9-dioxo-1,2,3,4,5,6,7,8,9,10-decahydrobenzo[b][1,4]diazacyclododecine-12-carboxylate]
173 nM	11600 nM	O=C1CCCCC[C@H](n2cnc(-c3cc(Cl)ccc3-n3cc(C(F)(F)F)nn3)cc2=O)C(=O)Nc2ccc(C(=O)O)cc2N1 [Example 28, (S)-3-(4-(5-chloro-2-(4-(trifluoromethyl)-1H-1,2,3-triazol-1-yl)phenyl)-6-oxopyrimidin-1(6H)-yl)-2,9-dioxo-1,2,3,4,5,6,7,8,9,10-decahydrobenzo[b][1,4]diazacyclododecine-12-carboxylic acid]
